What was measured:
EtaA = conditions: pH 7.5; cited from earlier work
[1] = oral administration of therapeutic doses; ref Conte et al., 2000; cited from earlier work
mouse liver microsomes = assay: Effect of inhibitors on S-oxidation of ETA by mouse liver microsomes; format: in vitro ADME; conditions: 200 μM ETA
mouse lung microsomes = assay: Effect of inhibitors on S-oxidation of ETA by mouse lung microsomes; format: in vitro ADME; conditions: 200 μM ETA
mFmos and hFMOs = conditions: 4 mM GSH added following 15 minutes of incubation; 200 μM ETA

SMILES: CCc1cc(C(N)=S)ccn1 [ETA, ethionamide]
- specificity constant for the formation of ETASO (EtaA): 0.04
- concentration of ETA in human plasma [1]: approximately 6 μM
- concentration of ETA in lung alveolar cells [1]: ~2.4 µM
- concentration of ETA in lung epithelial lining fluid [1]: ~35 µM

SMILES: NC(N)=S [thiourea]
- reduction of ETA oxygenation to ETASO (mouse liver microsomes; thiourea 200 μM, average): 73.5%
- reduction of ETA oxygenation to ETASO (mouse lung microsomes; thiourea 200 μM, average): 76.9%

SMILES: CCCC(C(=O)OCCN(CC)CC)(c1ccccc1)c1ccccc1 [SKF-525A]
- activity remaining (appearance of ETASO) (mouse liver microsomes; SKF-525A 1 mM): 82.9%
- activity remaining (appearance of ETASO) (mouse lung microsomes; SKF-525A 1 mM): 102.4%

SMILES: N[C@@H](CCC(=O)N[C@@H](CS)C(=O)NCC(=O)O)C(=O)O [GSH, Glutathione]
- ETASO removed (mFmos and hFMOs): ~50%
